GI50 and TGI data for 9 compounds are collected here from PubChem BioAssay (NCI).

Molecules are shown by their SMILES. Several values for one entry are separate records, joined by “and”; a condition that tells them apart may be missing. Identical values can stand only once.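 48-hour exposure; five concentrations; linearly interpolated endpoints. Abbreviation: GI50, concentration required for 50% inhibition of growth. Definition used: TGI = concentration required for complete inhibition of growth.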

Some test systems named below: HS 578T breast; A498 renal; HL-60(TB) leukemia; SK-OV-3 ovarian; NCI-H23 lung; SF-539 CNS; UACC-62 melanoma; COLO 205 colon.
Assay in all cases: NCI-60 cell line screen, 48 h

With `C=C1C[C@@H](O)[C@@H](Br)C(C)(C)[C@]12CCC(C)(Br)C(Cl)C2` (stereo not given in full), the GI50 with HS 578T breast is 29.9 µM; with A498 renal it was 18 µM; in the test on SK-OV-3 ovarian, 24 µM; in the test with NCI-H23 lung, 18.7 µM; in the test on SF-539 CNS, 16.9 µM; in the test on UACC-62 melanoma, 15.6 µM. Besides, in the test with COLO 205 colon, the GI50 is 0.627 µM. Besides, the TGI in the test on HS 578T breast was > 50 µM and 96.4 µM; in the test with A498 renal, > 50 µM and 31.9 µM; with HL-60(TB) leukemia, 11.8 µM; in the test on SK-OV-3 ovarian, > 50 µM and 64.6 µM; in the test with NCI-H23 lung it was > 50 µM and 37.5 µM; in the test with SF-539 CNS, > 50 µM and 31.2 µM. The TGI in the test on UACC-62 melanoma is > 50 µM and 29.3 µM; in the test on COLO 205 colon, 1.71 µM and 2.09 µM.

For `Nc1nc(=S)c2ncn(C3OC(CO)C(O)C3O)c2[nH]1` (stereo not given), the GI50 was 2.27 µM with HS 578T breast; 5.11 µM with A498 renal; 1.67 µM with HL-60(TB) leukemia; 0.379 µM in the test with SK-OV-3 ovarian; 0.776 µM in the test on NCI-H23 lung; 0.745 µM in the test with SF-539 CNS. For the same compound, the GI50 in the test on UACC-62 melanoma was 0.446 µM; with COLO 205 colon, 2.18 µM. Moreover, the TGI with HS 578T breast is over 86.1 µM; with A498 renal it was over 87.6 µM; with HL-60(TB) leukemia it was 11 µM; with SK-OV-3 ovarian, 7.76 µM; with NCI-H23 lung it was over 100 µM; in the test on SF-539 CNS it was over 79.2 µM. The TGI amounted to 5.67 µM in the test on UACC-62 melanoma and 7.82 µM in the test on COLO 205 colon.

For the compound `CCCCCCCCCCCCNC(=O)N[C@H](C(=O)N[C@H]1/C=C/CCNC(=O)/C=C/[C@H](C)NC1=O)C(C)C`, the GI50 is 0.333 µM with HS 578T breast; 0.0649 µM with A498 renal; 0.143 µM in the test on HL-60(TB) leukemia; 0.339 µM with SK-OV-3 ovarian; 0.0513 µM in the test on NCI-H23 lung; 0.0805 µM with SF-539 CNS. The results for the GI50 with UACC-62 melanoma and in the test on COLO 205 colon were 0.0447 µM and 0.0309 µM, respectively. The TGI worked out at 24 µM in the test with HS 578T breast; 0.362 µM in the test with A498 renal; 13.3 µM in the test with HL-60(TB) leukemia; 1.99 µM with SK-OV-3 ovarian; 0.612 µM in the test with NCI-H23 lung; 0.263 µM in the test with SF-539 CNS. Besides, the TGI with UACC-62 melanoma was found to be 0.168 µM; in the test with COLO 205 colon, 0.109 µM.

As for `COc1ccc(CN2C(=O)/C(=C\C(=O)c3ccc(OCCN4CCCC4)cc3)c3ccccc32)cc1`, the GI50 is 14.3 µM in the test on HS 578T breast; 18.1 µM in the test on A498 renal; 2.61 µM in the test on HL-60(TB) leukemia; 18.6 µM in the test on SK-OV-3 ovarian; 10.9 µM with NCI-H23 lung; 1.82 µM in the test on SF-539 CNS. The GI50 is 1.84 µM with UACC-62 melanoma and 2.28 µM with COLO 205 colon. Moreover, the TGI came out at 54.6 µM with HS 578T breast; 38.7 µM in the test with A498 renal; 6.7 µM in the test with HL-60(TB) leukemia; 34 µM with SK-OV-3 ovarian; 36.5 µM in the test on NCI-H23 lung; 3.75 µM in the test on SF-539 CNS. The figures for the TGI in the test with UACC-62 melanoma and with COLO 205 colon were 3.38 µM and 5.52 µM, respectively.

Consider `CC(=O)OC1CC2C(C)(C)CCC[C@]2(C)C2=C1C(O)=C(C(C)C)C(=O)C2=O` (stereo not given in full), for which the GI50 with HS 578T breast is 0.532 µM; in the test with A498 renal, 0.402 µM; in the test with HL-60(TB) leukemia, 0.613 µM; in the test with SK-OV-3 ovarian, 2.59 µM; with NCI-H23 lung it was 0.704 µM; with SF-539 CNS it was 0.723 µM. Moreover, the results for the GI50 in the test with UACC-62 melanoma and in the test with COLO 205 colon were 0.323 µM and 1.47 µM, respectively. Further, the TGI with HS 578T breast is over 20.4 µM; in the test on A498 renal, 1.79 µM; in the test with HL-60(TB) leukemia, 4.23 µM; in the test on SK-OV-3 ovarian, over 28.4 µM; in the test on NCI-H23 lung, 2.98 µM; in the test on SF-539 CNS it was 3.83 µM. Also, the figures for the TGI with UACC-62 melanoma and in the test with COLO 205 colon were 1.42 µM and 3.33 µM, respectively.

For `Cc1ccc(S(=O)(=O)OCC(=O)Nc2ccc(C(=O)O)c(O)c2)cc1`, the GI50 in the test with HS 578T breast was 20.3 µM; in the test with A498 renal it was 36.4 µM; with HL-60(TB) leukemia it was 26.1 µM; in the test with SK-OV-3 ovarian, 49.5 µM; in the test with NCI-H23 lung, 29.4 µM; in the test on SF-539 CNS, 24.7 µM. The GI50 with UACC-62 melanoma is 20.9 µM; with COLO 205 colon, 113 µM. Besides, the TGI was determined as 61.8 µM with HS 578T breast; 105 µM in the test on A498 renal; 193 µM in the test on HL-60(TB) leukemia; 188 µM with SK-OV-3 ovarian; 105 µM with NCI-H23 lung; 72.2 µM with SF-539 CNS. Further, the TGI with UACC-62 melanoma was found to be 61.4 µM; in the test on COLO 205 colon, 259 µM.

`Nc1c(C(=O)c2ccc(C#CCN3CCOCC3)cc2)cnn1-c1ccc(F)cc1`: the GI50 with HS 578T breast, in the test on A498 renal, in the test on HL-60(TB) leukemia, in the test on SK-OV-3 ovarian, in the test on NCI-H23 lung and with SF-539 CNS was over 25 µM throughout. Besides, the GI50 with UACC-62 melanoma and in the test with COLO 205 colon was over 25 µM throughout. Moreover, the TGI in the test with HS 578T breast, with A498 renal, with HL-60(TB) leukemia, with SK-OV-3 ovarian, in the test on NCI-H23 lung and with SF-539 CNS was over 25 µM in each case. The TGI in the test on UACC-62 melanoma and in the test on COLO 205 colon was over 25 µM in each case.

Consider `O=C(Nc1ccn(C2CC(I)C(COC(c3ccccc3)(c3ccccc3)c3ccccc3)O2)c(=O)n1)c1ccccc1` (stereo not given), for which the TGI in the test with HS 578T breast was 21.5 µM; in the test with A498 renal it was 13 µM; in the test on HL-60(TB) leukemia, 21.5 µM; in the test with SK-OV-3 ovarian, 21.5 µM; in the test with NCI-H23 lung it was 21.5 µM; in the test with SF-539 CNS, 18.4 µM. The figures for the TGI in the test on UACC-62 melanoma and with COLO 205 colon were 15.4 µM and 12.8 µM, respectively.

Regarding `CCNC(=O)Oc1ccc(/C(=C(\C)c2ccc(Cl)cc2)c2ccc(OCCN(CC)CC)cc2)cc1`, the GI50 is 3.72 µM in the test on HS 578T breast; 14.3 µM with A498 renal; 1.79 µM with HL-60(TB) leukemia; 10.7 µM in the test with SK-OV-3 ovarian; 7.92 µM in the test on NCI-H23 lung; 1.78 µM with SF-539 CNS. For the same compound, the GI50 in the test on UACC-62 melanoma is 2.07 µM; in the test on COLO 205 colon it was 1.94 µM. Also, the TGI was determined as 16.5 µM with HS 578T breast; 29.6 µM in the test on A498 renal; 4.37 µM in the test with HL-60(TB) leukemia; 22.8 µM with SK-OV-3 ovarian; 22.1 µM in the test on NCI-H23 lung; 3.44 µM in the test with SF-539 CNS. Moreover, the results for the TGI in the test with UACC-62 melanoma and in the test with COLO 205 colon were 4 µM and 3.94 µM, respectively.
